Where two headings read alike, the source gives them in different places.
Tests used:
myocardial infarct = conditions: Rossman et al., J. Nucl. Med. 16: 980-985 (1975); cited from earlier work
cerebral infarct = experiment: Detection of cerebral infarct in the rat (gamma imaging, localization ratio); format: in vivo, Sprague-Dawley CD rats; conditions: for DDC activity (mean +/- SD), ratio infarct:normal brain: 0.6 mCi, perfusion deficit marker; for Tc-99m-glucarate activity (mean +/- SD), ratio stroke regions to normal cerebral regions: i.v., 1.5-2.0 mCi
Procedure: Tc-99m-glucarate was used to visualize cerebral infarct regions in the rat brain.
Experimental cerebral infarcts were created in 28 Sprague-Dawley CD rats (Charles River Laboratories) by injection of thrombin-generated thrombi into an isolated carotid artery. […] Imaging was performed 1.5-2.0 hours later utilizing a gamma camera having a 3 mm diameter pin hole collimator. […] The gamma images obtained were analyzed by computer planimetry. Ratios of count densities in infarct regions and normal brain regions were calculated.

[1] = preparation made from 12 mg/ml glucarate
Procedure: Samples of ^99m -Tc-glucarate prepared as described in Example 1 from 6 and 12 mg/ml potassium glucarate were analyzed over a period of 7 hours.

[2] = Biodistribution of 99mTc-glucarate in various organs in Balb/c mice; format: in vivo; conditions: i.v., 100 uCi
Procedure: Biodistribution studies were carried out in Balb/c mice. The mice (3 mice per group) were injected intravenously with 100 uCi of technetium-labeled D-glucarate. […]

acute myocardial infarct = experiment: Detection of myocardial infarct in the dog (gamma camera imaging); conditions: for visualization of area of acute myocardial necrosis / blood pool activity: 80 minutes after injection; for visualization of area of acute myocardial necrosis: 10 mCi
Procedure: Mongrel dogs (n=3) were anesthetized with intravenous pentobartitol (30 mg/kg), and respiration maintained on a Harvard respirator. Left thoractomy was performed, the heart suspended in a pericardial cradle and a segment of the left anterior descending coronary artery (LAD) approximately two thirds the distance from the apex to the base was dissected free. The LAD was then occluded with a silk ligature. After three hours of LAD occlusion, the occlusive ligature was removed and reperfusion was established. At 15 minutes of reperfusion, 200 uCi of indium labeled R11D10 Fab-DTPA (Centocor, Inc.) was injected, and 30 seconds later, 10 mCi of technetium labeled glucarate was injected. Serial imaging with a gamma camera was initiated immediately upon tracer administration.
After 5 hours of in vivo imaging sessions, the dogs were sacrificed by pentobarbital overdose. Then, the cardiac tissue was stained with an intravenous triphenyltetrazolium chloride infusion. The heart was excised, washed with cold water, and imaged as a whole excised heart; and also as heart slices cut parallel to the atrioventricular groove in four slices after overnight storage at 4° C. Each slice was then divided into eight equal pieces and each piece subdivided into epicardial and endocardial samples, weighed and then counted in a gamma well counter (LKB Compu Gamma counter) for distribution of the various radioisotopes. […] Blood samples from the contralateral vein were obtained at 1, 2, 3, 4, 5, 10, 15, 20, 30, 45, 60, and 75 minutes. […] At the time of sacrifice, tissue samples from the liver, lungs, kidneys, spleen, and skeletal muscles were also obtained.

[3] = room temperature, 1 hr
Procedure: Monopotassium glucarate (25 mg) was dissolved in 0.2M bicarbonate (1.0 ml) at pH 8.0. To 500 ul of glucarate solution, 40 ul of stannous chloride (2.5 mg/ml) in 0.1M acetic acid was added, followed by 500 ul of ^99m Tc generator eluate (60 mCi). The resulting solution was allowed to stand for 5 minutes at room temperature, and then analyzed for radiochemical purity by paper chromatography (Whatman 3MM, 60% CH3 CN:40% H2 O)
^99m Tc-glucarate was prepared as described in Example 1 using different concentrations of potassium glucarate (0.09-12.25 mg/ml). The products were analyzed by paper chromatography (Whatman 3MM, 60% CH3 CN:40%H2 O; ^99m TcO4 ^-Rf= 1.0, ^99m Tc-glucarate,Rf=0.4; ^99m TcO2 ×H2 O, Rf=0).

[4] = dog, listed as 99m Tc-glucarate

For ^99m Tc-D-glucoheptonate, the “success as an imaging agent for myocardial infarct” value (myocardial infarct) is listed as “less successful”.
With “T1-201 diethyldithiocarbamate [DDC, reference compound]” the “DDC activity (mean +/- SD), ratio infarct:normal brain” value (cerebral infarct; 1 hour after infarct, rats) was 0.3 +/- 0.1, the “DDC activity (mean +/- SD), ratio infarct:normal brain” value (cerebral infarct; 3 hours after infarct, rats) was 0.3 +/- 0.3 and the “DDC activity (mean +/- SD), ratio infarct:normal brain” value (cerebral infarct; 5 hours after infarct, rats) was 0.4 +/- 0.2. The “DDC activity (mean +/- SD), ratio infarct:normal brain” value (cerebral infarct; 24 hours after infarct, rats) was 0.3 +/- 0.2.
In the case of Tc-99m-glucarate, the “effect of duration of cerebral injury on localization” value (cerebral infarct; 1, 3, 5 and 24 hours, rats) is reported as “did not appear to affect localization”, the “diffusion across the blood-brain barrier” value (cerebral infarct; imaging in the brain) is reported as “can diffuse across the blood-brain barrier” and the “Tc-99m-glucarate activity (mean +/- SD), ratio stroke regions to normal cerebral regions” value (cerebral infarct; injection 1 hour after infarct, rats) is reported as 2.98 +/- 0.7. For the same substance, the “Tc-99m-glucarate activity (mean +/- SD), ratio stroke regions to normal cerebral regions” value (cerebral infarct; injection 3 hours after infarct, rats) was 4.1 +/- 1.7, the “Tc-99m-glucarate activity (mean +/- SD), ratio stroke regions to normal cerebral regions” value (cerebral infarct; injection 5 hours after infarct, rats) was 4.1 +/- 2.4 and the “Tc-99m-glucarate activity (mean +/- SD), ratio stroke regions to normal cerebral regions” value (cerebral infarct; injection 24 hours after infarct, rats) was 4.8 +/- 1.9. The “accumulation in stroke compared with 99mTc-glucoheptonate” value (cerebral infarct; rats) was “more rapid and intense”, the “ratios of activity in stroke regions to normal cerebral regions, in words” value (cerebral infarct; rats) was “maximal in all stroke animals” and the “time to cerebral infarct image” value (cerebral infarct; rats) was “one”. For the same substance, the “visualization of cerebral infarct regions by gamma scintigraphy” value (cerebral infarct; rats) was “All cerebral infarct regions were visualized”, the “stable for a period of” value [1] was “about 2 hours” and the “Biodistribution, Blood” value ([2]; 1 hour) was 1.72 ± 0.43 % Injected Dose Per Gram. For the same substance, the “Biodistribution, Heart” value ([2]; 1 hour) was 0.63 ± 1.10 % Injected Dose Per Gram, the “Biodistribution, Intestine” value ([2]; 1 hour) was 2.90 ± 1.12 % Injected Dose Per Gram and the “Biodistribution, Kidneys” value ([2]; 1 hour) was 24.3 ± 4.15 % Injected Dose Per Gram. The “Biodistribution, Liver” value ([2]; 1 hour) was 1.54 ± 0.51 % Injected Dose Per Gram, the “Biodistribution, Lungs” value ([2]; 1 hour) was 3.90 ± 1.80 % Injected Dose Per Gram and the “Biodistribution, Muscle” value ([2]; 1 hour) was 0.32 ± 0.20 % Injected Dose Per Gram. The “Biodistribution, Spleen” value ([2]; 1 hour) was 0.44 ± 0.76 % Injected Dose Per Gram, the “Biodistribution, Stomach” value ([2]; 1 hour) was 0.935 % Injected Dose Per Gram and the “Biodistribution, Blood” value ([2]; 4 hours) was 1.26 ± 0.22 % Injected Dose Per Gram. For the same substance, the “Biodistribution, Heart” value ([2]; 4 hours) was 0.75 ± 1.30 % Injected Dose Per Gram, the “Biodistribution, Intestine” value ([2]; 4 hours) was 2.02 ± 0.90 % Injected Dose Per Gram and the “Biodistribution, Kidneys” value ([2]; 4 hours) was 28.50 ± 0.75 % Injected Dose Per Gram. For the same substance, the “Biodistribution, Liver” value ([2]; 4 hours) was 1.49 ± 0.08 % Injected Dose Per Gram, the “Biodistribution, Lungs” value ([2]; 4 hours) was 3.43 ± 1.35 % Injected Dose Per Gram and the “Biodistribution, Muscle” value ([2]; 4 hours) was 2.31 ± 2.98 % Injected Dose Per Gram. For the same substance, the “Biodistribution, Stomach” value ([2]; 4 hours) was 3.49 ± 5.10 % Injected Dose Per Gram, the “Biodistribution, Blood” value ([2]; 8 hours) was 0.90 ± 0.29 % Injected Dose Per Gram and the “Biodistribution, Heart” value ([2]; 8 hours) was 0.30 ± 0.52 % Injected Dose Per Gram. The “Biodistribution, Intestine” value ([2]; 8 hours) was 0.89 ± 0.46 % Injected Dose Per Gram, the “Biodistribution, Kidneys” value ([2]; 8 hours) was 19.20 ± 5.00 % Injected Dose Per Gram and the “Biodistribution, Liver” value ([2]; 8 hours) was 1.03 ± 0.18 % Injected Dose Per Gram. For the same substance, the “Biodistribution, Lungs” value ([2]; 8 hours) was 1.95 ± 1.04 % Injected Dose Per Gram, the “Biodistribution, Muscle” value ([2]; 8 hours) was 0.59 ± 0.82 % Injected Dose Per Gram and the “Biodistribution, Stomach” value ([2]; 8 hours) was 1.13 ± 0.98 % Injected Dose Per Gram. For the same substance, the “Biodistribution, Blood” value ([2]; 24 hours) was 0.56 ± 0.09 % Injected Dose Per Gram, the “Biodistribution, Intestine” value ([2]; 24 hours) was 0.58 ± 0.36 % Injected Dose Per Gram and the “Biodistribution, Kidneys” value ([2]; 24 hours) was 8.4 ± 1.74 % Injected Dose Per Gram. The “Biodistribution, Liver” value ([2]; 24 hours) was 0.42 ± 0.05 % Injected Dose Per Gram, the “Biodistribution, Lungs” value ([2]; 24 hours) was 1.52 ± 1.02 % Injected Dose Per Gram and the “Biodistribution, Muscle” value ([2]; 24 hours) was 0.68 ± 1.00 % Injected Dose Per Gram. For the same substance, the “Biodistribution, Stomach” value ([2]; 24 hours) was 0.39 ± 0.34 % Injected Dose Per Gram, the “visualization of area of acute myocardial necrosis” value (acute myocardial infarct; dog) was “clearly visible” and the “visualization of area of acute myocardial necrosis” value (acute myocardial infarct; [4]) was “clearly visualized”. For the same substance, the blood pool activity (acute myocardial infarct; dog) was “minimum blood activity”, the blood pool activity (acute myocardial infarct; [4]) was “minimum blood pool activity” and the “time to avid myocardial infarct image” value (acute myocardial infarct; dogs) was “one and a half”. The “uptake in area of myocardial infarction of the heart slices” value (acute myocardial infarct; excised heart slices, dog) was “Distinct uptake”, the “% 99mTc-Glucarate” value ([3]; 0.09 mg/ml glucaric acid) was 43.0% and the “% 99mTcO2” value ([3]; 0.09 mg/ml glucaric acid) was 57.0%. The “% 99mTc-Glucarate” value ([3]; 0.19 mg/ml glucaric acid) was 59.0%, the “% 99mTcO2” value ([3]; 0.19 mg/ml glucaric acid) was 41.0% and the “% 99mTc-Glucarate” value ([3]; 0.38 mg/ml glucaric acid) was 70.0%. For the same substance, the “% 99mTcO2” value ([3]; 0.38 mg/ml glucaric acid) was 30.0%, the “% 99mTc-Glucarate” value ([3]; 0.76 mg/ml glucaric acid) was 75.6% and the “% 99mTcO2” value ([3]; 0.76 mg/ml glucaric acid) was 24.4%. The “% 99mTc-Glucarate” value ([3]; 1.53 mg/ml glucaric acid) was 80.5%, the “% 99mTcO2” value ([3]; 1.53 mg/ml glucaric acid) was 19.5% and the “% 99mTc-Glucarate” value ([3]; 3.06 mg/ml glucaric acid) was 88.5%. For the same substance, the “% 99mTcO2” value ([3]; 3.06 mg/ml glucaric acid) was 11.5%, the “% 99mTc-Glucarate” value ([3]; 6.12 mg/ml glucaric acid) was 100.0% and the “% 99mTcO2” value ([3]; 6.12 mg/ml glucaric acid) was “.0%”. The “% 99mTc-Glucarate” value ([3]; 12.25 mg/ml glucaric acid) was 100.0% and the “% 99mTcO2” value ([3]; 12.25 mg/ml glucaric acid) was “.0%”.

Reference: patent US4952393A, “Organ infarct imaging with technetium labelled glucarate” (The General Hospital Corporation, priority 1988, dated 1990)
